The record followed here is US9550803B2, “Method to improve antiviral activity of nucleotide analogue drugs” (priority 2011, dated 2017).

SMILES strings stand for the structures. Like-named read-outs stand apart in the source and are kept apart here. A value given as a limit tells only on which side of the number the result lay.

For one data set, the system named is vaccinia virus. The data set can be described thus: microbe, parasite or virus in culture. The format is cell-based. The following applies: read-out: Antiviral activity, IC50 Vaccinia.
For data set [1], the system named is human cytomegalovirus (HCMV). The data set can be described thus: microbe, parasite or virus in culture. The note with it: read-out: Antiviral activity, IC50 HCMV. The format is cell-based.
In a further data set the test system is cowpox virus. The data set can be described thus: microbe, parasite or virus in culture. Type of data set: cell-based. The note with it: read-out: Antiviral activity, IC50 Cowpox.
A short description of the next data set: in vitro. The note with it: human.
[2] abbreviates: Orthopoxvirus vaccinia, HFF, 72 h.
Where [3] appears, read: Human betaherpesvirus 5, HFF, 240 h.

In the data set with KB cells, `C[C@H](Cn1cnc2c(N)nc(N)nc21)OCP(=O)(O)O` [(R)-PMPDAP, reference compound] showed a CC50 above 100 µM. The IC50 in the data set with vaccinia virus was above 100 µM; in data set [1] it was above 100000 nM; in the data set on cowpox virus, above 100 µM.

As for `Nc1ncnc2c1ncn2C[C@@H](CO)OCP(=O)(O)O` [(S)-HPMPA, (S)-9-(3hydroxy-2-phosphonyl-methoxypropyl)adenine, reference compound], the CC50 in the data set on KB cells was above 100 µM. The IC50 in the data set with vaccinia virus was determined as 2.5 µM; in data set [1], 6000 nM; in the data set on cowpox virus it was 20 µM.

Turning to `Nc1ccn(C[C@@H](CO)OCP(=O)(O)O)c(=O)n1` [(S)-HPMPC, cidofovir, reference compound], the CC50 in “in vitro” is above 100 µM. The half-inhibitory concentration (IC50) in the data set with vaccinia virus (setting [2]) was determined as 10 µM; in data set [1] (setting [3]), 300 nM; in the data set on cowpox virus (Cowpox virus, HFF, 72 h), 25 µM.

The compound `Nc1ncnc2c1ncn2C[C@H]1COP(=O)(O)CO1` [(S)-cHPMPA, reference compound] returned a CC50 with KB cells above 100 µM. The figures for the IC50 (in the data set on vaccinia virus; in data set [1]; in the data set on cowpox virus) were 1 µM, 1500 nM and 2.5 µM, respectively.

`CC(=NNC(N)=S)c1ccccn1` [Compound 3L, 2-Acetylpyridine thiosemicarbazone, reference compound]: the CC50 in “in vitro” worked out at 2 µM.

In “in vitro”, `CCCCCCCCNC(=O)[C@@H](N)Cc1ccc(OP2(=O)CO[C@@H](Cn3cnc4c(N)ncnc43)CO2)cc1` (stereo partly drawn) [Compound 8a, O-[(5S)-5-[(6-Amino-9H-purin-9-yl)methyl]-2-oxido-1,4,2-dioxaphosphinan-2-yl]-N-octyl-(L)-tyrosinamide] had a CC50 of 100 µM. The 50% inhibitory concentration (IC50) turned out to be 1.5 µM in the data set on vaccinia virus (setting [2]); 300 nM in data set [1] (setting [3]); 3 µM in the data set with cowpox virus (Cowpox virus, HFF, 72 h).

Turning to `CCCCCCCCCCCCNC(=O)[C@@H](N)Cc1ccc(OP2(=O)CO[C@@H](Cn3cnc4c(N)ncnc43)CO2)cc1` (stereo partly drawn) [Compound 8b, O-[(5S)-5-[(6-Amino-9H-purin-9-yl)methyl]-2-oxido-1,4,2-dioxaphosphinan-2-yl]-N-dodecyl-(L)-tyrosinamide], the CC50 in the data set “in vitro” is 15 µM. Moreover, in data set [1] (setting [3]), the half-maximal inhibitory concentration (IC50) is below 0.001 nM.

In the case of `CCCCCCCCCCCCCCNC(=O)[C@@H](N)Cc1ccc(OP2(=O)CO[C@@H](Cn3cnc4c(N)ncnc43)CO2)cc1` (stereo partly drawn) [Compound 8c, O-[(5S)-5-[(6-Amino-9H-purin-9-yl)methyl]-2-oxido-1,4,2-dioxaphosphinan-2-yl]-N-tetradecyl-(L)-tyrosinamide], in the data set “in vitro”, the CC50 was found to be 15 µM. The IC50 in data set [1] (setting [3]) is below 0.001 nM.

Take `CCCCCCCCCCCCCCCCNC(=O)[C@@H](N)Cc1ccc(OP2(=O)CO[C@@H](Cn3cnc4c(N)ncnc43)CO2)cc1` (stereo partly drawn) [Compound 8d, O-[(5S)-5-[(6-Amino-9H-purin-9-yl)methyl]-2-oxido-1,4,2-dioxaphosphinan-2-yl]-N-hexadecyl-(L)-tyrosinamide]: the CC50 in the data set “in vitro” was 11 µM. In addition, the half-maximal inhibitory concentration (IC50) with vaccinia virus (setting [2]) is 0.006 µM; in data set [1] (setting [3]) it was below 0.001 nM; in the data set with cowpox virus (Cowpox virus, HFF, 72 h), below 0.1 µM.

Turning to `CCCCCCCCCCCCCCCCCCNC(=O)[C@@H](N)Cc1ccc(OP2(=O)CO[C@@H](Cn3cnc4c(N)ncnc43)CO2)cc1` (stereo partly drawn) [Compound 8e, O-[(5S)-5-[(6-Amino-9H-purin-9-yl)methyl]-2-oxido-1,4,2-dioxaphosphinan-2-yl]-N-octadecyl-(L)-tyrosinamide], the CC50 in “in vitro” amounted to 10 µM. Further, the IC50 in data set [1] (setting [3]) was below 0.001 nM.

On to `CCCCCCCCCCCCCCCCNC(=O)[C@@H](N)Cc1ccc(OP2(=O)CO[C@@H](Cn3ccc(N)nc3=O)CO2)cc1` (stereo partly drawn) [Compound 8f, O-[(5S)-5-[(4-amino-2-oxopyrimidin-1(2H)-yl)methyl]-2-oxido-1,4,2-dioxaphosphinan-2-yl]-N-hexadecyl-(L)-tyrosinamide], for which the CC50 in the data set “in vitro” came out at 15 µM. The IC50 in data set [1] (setting [3]) is below 0.001 nM.

For `CCCCCCCCNC(=O)[C@@H](N)Cc1ccc(OP(=O)(O)CO[C@H](CO)Cn2cnc3c(N)ncnc32)cc1` [Compound 9a, O-[([[(2S)-1-(6-Amino-9H-purin-9-yl)-3-hydroxypropan-2-yl]oxy]methyl)(hydroxy)-phosphoryl]-N-octyl-(L)-tyrosinamide], the IC50 in data set [1] (setting [3]) is below 100 nM.

As for `CCCCCCCCCCCCNC(=O)[C@@H](N)Cc1ccc(OP(=O)(O)CO[C@H](CO)Cn2cnc3c(N)ncnc32)cc1` [Compound 9b, O-[([[(2S)-1-(6-Amino-9H-purin-9-yl)-3-hydroxypropan-2-yl]oxy]methyl)(hydroxy)-phosphoryl]-N-dodecyl-(L)-tyrosinamide], the CC50 in “in vitro” amounted to 15 µM. Moreover, in data set [1] (setting [3]), the IC50 is below 0.001 nM.

In the case of `CCCCCCCCCCCCCCNC(=O)[C@@H](N)Cc1ccc(OP(=O)(O)CO[C@H](CO)Cn2cnc3c(N)ncnc32)cc1` [Compound 9c, O-[([[(2S)-1-(6-Amino-9H-purin-9-yl)-3-hydroxypropan-2-yl]oxy]methyl)(hydroxy)-phosphoryl]-N-tetradecyl-(L)-tyrosinamide], the CC50 in “in vitro” worked out at 20 µM. For the same compound, in data set [1] (setting [3]), the half-maximal inhibitory concentration (IC50) was below 0.001 nM.

For `CCCCCCCCCCCCCCCCNC(=O)[C@@H](N)Cc1ccc(OP(=O)(O)CO[C@H](CO)Cn2cnc3c(N)ncnc32)cc1` [Compound 9d, O-[([[(2S)-1-(6-Amino-9H-purin-9-yl)-3-hydroxypropan-2-yl]oxy]methyl)(hydroxy)-phosphoryl]-N-hexadecyl-(L)-tyrosinamide], the CC50 in “in vitro” amounted to 15 µM. Moreover, the 50% inhibitory concentration (IC50) in the data set with vaccinia virus (setting [2]) is 0.003 µM; in data set [1] (setting [3]) it was below 0.001 nM; in the data set on cowpox virus (Cowpox virus, HFF, 72 h), below 0.1 µM.

On to `CCCCCCCCCCCCCCCCCCNC(=O)[C@@H](N)Cc1ccc(OP(=O)(O)CO[C@H](CO)Cn2cnc3c(N)ncnc32)cc1` [Compound 9e, O-[([[(2S)-1-(6-Amino-9H-purin-9-yl)-3-hydroxypropan-2-yl]oxy]methyl)-(hydroxy)-phosphoryl]-N-octadecyl-(L)-tyrosinamide], for which, in the data set “in vitro”, the CC50 came out at 10 µM. Further, the concentration for half-maximal inhibition (IC50) in data set [1] (setting [3]) was below 0.001 nM.

In the data set with KB cells, `CCCCCCCCCCCCCCCCNC(=O)[C@@H](N)Cc1ccc(OP(=O)(O)CO[C@H](CO)Cn2ccc(N)nc2=O)cc1` [Compound 9f, O-[([[(2S)-1-(4-amino-2-oxopyrimidin-(2H)-yl)-3-hydroxypropan-2-yl]oxy]methyl)-(hydroxy)phosphoryl]-N-hexadecyl-(L)-tyrosinamide] gave a CC50 of 90 µM. In data set [1], the IC50 is below 0.001 nM.

`CCCCCCCCNC(=O)[C@@H](N)Cc1ccc(OP(=O)(O)COCCn2cnc3c(N)ncnc32)cc1` [Compound 14a, O-[{[2-(6-Amino-9H-purin-9-yl)ethoxy]methyl}(hydroxy)phosphoryl]-N-octyl-L-tyrosinamide] gave a CC50 in the data set “in vitro” of 100 µM. Besides, the IC50 is 50 µM in the data set with vaccinia virus (setting [2]); 35000 nM in data set [1] (setting [3]); above 100 µM with cowpox virus (Cowpox virus, HFF, 72 h).

Turning to `CCCCCCCCCCCCCCCCNC(=O)[C@@H](N)Cc1ccc(OP(=O)(O)COCCn2cnc3c(N)ncnc32)cc1` [Compound 14b, O-[{[2-(6-Amino-9H-purin-9-yl)ethoxy]methyl}(hydroxy)phosphoryl]-N-hexadecyl-L-tyrosinamide], in the data set “in vitro”, the CC50 amounted to 15 µM. Also, the IC50 in the data set with vaccinia virus (setting [2]) amounted to 4 µM; in data set [1] (setting [3]), 2500 nM; in the data set on cowpox virus (Cowpox virus, HFF, 72 h), 20 µM.

As to `CCCCCCCCNC(=O)[C@@H](N)Cc1ccc(OP(=O)(O)CO[C@H](C)Cn2cnc3c(N)nc(N)nc32)cc1` [Compound 15a, O-[({[(2R)-1-(2,6-diamino-9H-purin-9-yl)propan-2-yl]oxy}methyl)(hydroxy)phosphoryl]-N-octyl-L-tyrosinamide], the CC50 in “in vitro” was above 100 µM. Further, the IC50 in the data set with vaccinia virus (setting [2]) was above 100 µM; in data set [1] (setting [3]), above 100000 nM; in the data set on cowpox virus (Cowpox virus, HFF, 72 h), above 100 µM.

With `Nc1nc(O)c2ncn(COC(CO)CO)c2n1` [DHPG, Ganciclovir, reference compound], in data set [1] (setting [3]), the 50% inhibitory concentration (IC50) stood at 3000 nM.

In the data set on KB cells, `Nc1ncnc2c1ncn2CCOCP(=O)(O)O` [PMEA, reference compound] displayed a CC50 above 100 µM. Besides, the IC50 in the data set on vaccinia virus was above 100 µM; in data set [1] it was 25000 nM; in the data set on cowpox virus it was above 100 µM.

A word on the IC50: it is the point on the concentration scale where inhibition reaches its midpoint.
